The values below come from US12370170B2, “Composition comprising naphthoquinone-based compound as active ingredient, for preventing or ameliorating fatigue, cachexia, pain, cognitive decline and hematopoietic stem cell reduction which are side effects related to anticancer drug treatment” (NADIANBIO LTD., priority 2016, dated 2025).

Common to all, as to type: in vivo, C57BL/6 mice
The test system of test [1] is inflammatory cytokines TNF-α, IL-1β, IL-6 and IL-17. In words: Plasma inflammatory cytokines by ELISA in adriamycin animal model. To be noted: adriamycin 4 mg/kg/day i.p. ×3; compound 20 mg/kg oral daily from 3 days before; 4 days after final adriamycin; vs adriamycin group. Here is the method:
(§1) In this invention, 11 weeks old C57BL/6 mice were used. All the mice used in the experiments of the invention were raised in an aseptic animal room at the temperature of 22˜26 L with the humidity of 55˜60%. The mice were allowed to take general solid feed (SAMTACO Co., Ltd., Korea) and water freely. The mice were adapted for 1 week before the experiment. All the experiments were performed after obtaining approval from the clinical trial management committee in accordance with the laboratory animal care and ethics regulations of Wonkwang University. The mouse animal model of the present invention was treated with different anticancer drugs. […]
Particularly, plasma was isolated from the adriamycin animal model prepared by the same manner as described in Example 4, and the inflammatory cytokines TNF-α (R&D Systems, MTA00B), IL-1β (R&D Systems, MLB00C), IL-6 (R&D Systems, M6000B) and IL-17 (R&D Systems, M1700) were analyzed by ELISA (enzyme-linked immunosorbent assay).
To investigate the regulatory effect of β-lapachone on adriamycin induced inflammatory cytokines, plasma was isolated from the adriamycin animal model prepared by the same manner as described in Example 4, and the inflammatory cytokines TNF-α, IL-1β, IL-6 and IL-17 were analyzed by ELISA.
On the technique in general: An ELISA detects its analyte on a solid surface through an enzyme-linked reagent.

Test [2] has the same test system. As to the kind of experiment: Plasma inflammatory cytokines by ELISA in gemcitabine (500 mg/kg) animal model. Conditions: gemcitabine 500 mg/kg i.p. once; dunnione 20 mg/kg oral daily from 3 days before; 2 days after gemcitabine; vs gemcitabine group. Here is the method:
as §1, with “drugs. Particularly, one kind of anticancer drug was administered intraperitoneally one time or more, or several kinds of anticancer drugs were administered once or more times or at different concentrations, leading to the establishment of the animal model of the invention.” for “drugs.”
Plasma was isolated from the gemcitabine animal model prepared by the same manner as described in Example 5, and the inflammatory cytokines TNF-α, IL-1β, IL-6 and IL-17 were analyzed by ELISA.

Test [3] concerns inflammatory cytokines TNF-α and IL-1β. As to the kind of experiment: Brain inflammatory response: TNF-α and IL-1β in hypothalamus (RT-PCR, ELISA), 4×ACP animal model. To be noted: dunnione 80 mg/kg oral. Here is the method:
In this invention, 11 weeks old C57BL/6 mice were used. All the mice used in the experiments of the invention were raised in an aseptic animal room at the temperature of 22˜26 L with the humidity of 55˜60%. The mice were allowed to take general solid feed (SAMTACO Co., Ltd., Korea) and water freely. The mice were adapted for 1 week before the experiment. All the experiments were performed after obtaining approval from the clinical trial management committee in accordance with the laboratory animal care and ethics regulations of Wonkwang University. The mouse animal model of the present invention was treated with different anticancer drugs. Particularly, one kind of anticancer drug was administered intraperitoneally one time or more, or several kinds of anticancer drugs were administered once or more times or at different concentrations, leading to the establishment of the animal model of the invention. In the adriamycin-induced animal model, the mice were divided into 6 groups as follows: the control group administered with PBS (Control, 5 mice), the group administered intraperitoneally with adriamycin (4 mg/kg/day) 3 times (ADR, 5 mice), the group administered orally with dunnione or β-lapachone from 3 days before the adriamycin treatment daily (20 mg/kg, 5 mice), and the group administered with dunnione or β-lapachone (20 mg/kg, 5 mice). 4 days after the final adriamycin treatment, analysis of the mice was performed.
The present inventors established an animal model co-treated with three different anticancer drugs in this experiment. The anticancer drugs used herein were adriamycin (ADR), cyclophosphamide (CYP) and paclitaxel (PTX), which were indicated as ACP. […]
A homogenate was prepared with the mouse hypothalamus extracted from the 4×ACP animal model prepared by the same manner as described in Example 8. Then, the expressions of the inflammatory cytokines TNF-α and IL-1β in the brain tissue were analyzed by ELISA.

The nature of test [4]: Muscle loss (body weight, gastrocnemius muscle weight) in cyclophosphamide induced animal model. To be noted: cyclophosphamide 150 mg/kg+200 mg/kg i.p.; dunnione 20 mg/kg oral daily from 3 days before; 48 hours after. Here is the method: as §1, with “drugs. Particularly, one kind of anticancer drug was administered intraperitoneally one time or more, or several kinds of anticancer drugs were administered once or more times or at different concentrations, leading to the establishment of the animal model of the invention.” for “drugs.”
In the cyclophosphamide (150 mg/kg+200 mg/kg) induced animal model prepared by the same manner as described in Example 9, the changes of body weight and gastrocnemius muscle weight were measured after the drug treatment in order to investigate the regulatory effect of dunnione on muscle loss.

Test [5] concerns MAFbx, MuRF1 and Bnip3 mRNAs. In words: Muscle loss related gene expression in cyclophosphamide induced animal model. Conditions: cyclophosphamide 350 mg/kg total; dunnione 20 mg/kg oral; vs cyclophosphamide group.

On to `CC1OC2=C(C(=O)C(=O)c3ccccc32)C1(C)C` (stereo not shown) [dunnione, 2,3-dihydro-2,3,3-trimethyl naphtho [1,2-b]furan-4,5-dione], for which the “level of inflammatory cytokines (TNF-α, IL-1β, IL-6, IL-17) in plasma” value in test [1] is given as “significantly reduced”. Moreover, the “level of inflammatory cytokines (TNF-α, IL-1β, IL-6, IL-17) in plasma” value in test [2] is “significantly reduced”. For the same compound, the “up-regulations of TNF-α and IL-1β at protein level in the hypothalamus” value in test [3] (ELISA) is recorded as “significantly suppressed”. The “up-regulations of TNF-α and IL-1β at RNA level in the hypothalamus” value in test [3] (RT-PCR) is given as “significantly suppressed”. In test [4], the “reduction of gastrocnemius muscle weight and gastrocnemius muscle weight change” value is “significantly restored”; the “weight loss (body weight)” value is “significantly restored”. In addition, the “expressions of MAFbx, MuRF1 and Bnip3 mRNAs in muscle” value in test [5] is recorded as “significantly reduced”.
